From patent publication US10597388B2, “Pyridazinone herbicides” (FMC CORPORATION, priority 2014, dated 2020)

Experiments:
Assay type in all cases: in vivo
[1] = tested on: blackgrass (Alopecurus myosuroides); test: Test C greenhouse herbicide test, pre- and postemergence
Procedure, shortened: (§1)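 Seeds sown in loam–sand blend treated preemergence; plants in peat-based medium sprayed postemergence at 2–18 cm (1- to 4-leaf stage); chemicals in non-phytotoxic solvent with surfactant. Greenhouse 13–15 d, then visual rating versus controls on 0–100 scale (0 no effect, 100 complete control).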

[2] = tested on: barnyardgrass (Echinochloa crus-galli); test: as above; settings: Postemergence
Procedure, shortened: as §1

[3] = tested on: ryegrass, Italian (Italian ryegrass, Lolium multiflorum); test: as above
Procedure, shortened: as §1

[4] = tested on: ragweed (common ragweed, Ambrosia elatior); test: as above
Procedure, shortened: as §1

[5] = tested on: soybean (Glycine max); test: as above
Procedure, shortened: as §1

[6] = tested on: wheat (winter wheat, Triticum aestivum); test: as above
Procedure, shortened: as §1

[7] = tested on: johnsongrass (Sorghum halepense); test: as above
Procedure, shortened: as §1

[8] = tested on: lambsquarters (Chenopodium album); test: as above
Procedure, shortened: as §1

[9] = tested on: foxtail, giant (giant foxtail, Setaria faberii); test: as above
Procedure, shortened: as §1

[10] = tested on: corn (Zea mays); test: as above
Procedure, shortened: as §1

[11] = tested on: waterhemp (common waterhemp, Amaranthus rudis); test: as above
Procedure, shortened: as §1

[12] = tested on: pigweed (Amaranthus retroflexus); test: as above
Procedure, shortened: as §1

[13] = tested on: crabgrass, large (large crabgrass, Digitaria sanguinalis); test: as above
Procedure, shortened: as §1

[14] = tested on: morningglory (Ipomoea coccinea); test: as above
Procedure, shortened: as §1

[15] = tested on: oat, wild (wild oat, Avena fatua); test: Test C greenhouse herbicide test, postemergence
Procedure, shortened: (§2)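 Seedlings are raised in pots of peat moss–vermiculite medium with starter nutrients, then receive postemergence test chemical at the 1- to 4-leaf stage. They are kept in the greenhouse 13 to 15 d and scored visually versus controls, 0 meaning no effect and 100 complete control.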

[16] = tested on: kochia (Kochia scoparia); test: Test C greenhouse herbicide test, postemergence
Procedure, shortened: as §2

[17] = Postemergence, 31 g ai/ha, scale 0 to 100 (0 no effect, 100 complete control)
[18] = Postemergence, 62 g ai/ha, 0 to 100 scale (0 no effect, 100 complete control)
[19] = Postemergence, 250 g ai/ha, scale 0 to 100, 0 no effect, 100 complete control, 13 to 15 d
[20] = postemergence, 125 g ai/ha, scale 0 to 100, 0 no effect, 100 complete control

Cc1nn(C)c(=O)c(-c2cccc3ccc(C#N)cc23)c1O [Compound 127]
30: Soybean plant response rating [5, 20] | Plant response rating, Wheat [6, 19]
50: Plant response rating, Ryegrass, Italian [3, 17]
98: Plant response rating, Lambsquarters [8, 19] | Plant response rating, Morningglory [14, 19]
70: Plant response rating, Lambsquarters [8, 17] | Plant response rating, Waterhemp [11, 17] | Plant response rating, Pigweed [12, 17]
60: Ragweed plant response rating [4, 20] | Plant response rating, Oat, Wild [15, 19]
95: Plant response rating, Waterhemp [11, 19] | Plant response rating, Pigweed [12, 19] | Kochia plant response rating [16, 20]
20: Barnyardgrass plant response rating ([2]; 62 g ai/ha, 0 to 100 scale (0 no effect, 100 complete control)) | Oat, Wild plant response rating [15, 18]
75: Ryegrass, Italian plant response rating [3, 18] | Morningglory plant response rating [14, 18]
15: Plant response rating, Johnsongrass [7, 19]
40: Plant response rating, Foxtail, Giant [9, 19] | Plant response rating, Kochia [16, 17]
0: Plant response rating, Blackgrass [1, 17] | Plant response rating, Soybean [5, 17] | Plant response rating, Wheat [6, 17] | Plant response rating, Corn [10, 17] | Corn plant response rating [10, 18] | Plant response rating, Crabgrass, Large [13, 17]
80: Ryegrass, Italian plant response rating [3, 20] | Lambsquarters plant response rating [8, 18]
55: Ragweed plant response rating [4, 18] | Oat, Wild plant response rating [15, 20]
85: Lambsquarters plant response rating [8, 20] | Waterhemp plant response rating [11, 18] | Waterhemp plant response rating [11, 20] | Pigweed plant response rating [12, 18] | Morningglory plant response rating [14, 20] | Kochia plant response rating [16, 18]
65: Plant response rating, Morningglory [14, 17]
90: Plant response rating, Ryegrass, Italian [3, 19] | Plant response rating, Ragweed [4, 19] | Pigweed plant response rating [12, 20] | Plant response rating, Kochia [16, 19]
35: Plant response rating, Blackgrass [1, 19] | Plant response rating, Soybean [5, 19]
25: Plant response rating, Barnyardgrass ([2]; 125 g ai/ha, scale 0 to 100, 0 is no effect, 100 is complete control) | Plant response rating, Barnyardgrass ([2]; 250 g ai/ha, scale 0 to 100, 0 no effect, 100 complete control, 13 to 15 d) | Foxtail, Giant plant response rating [9, 20] | Plant response rating, Crabgrass, Large [13, 19]
5: Blackgrass plant response rating [1, 18] | Blackgrass plant response rating [1, 20] | Wheat plant response rating [6, 18] | Wheat plant response rating [6, 20] | Plant response rating, Johnsongrass [7, 17] | Johnsongrass plant response rating [7, 18] | Plant response rating, Foxtail, Giant [9, 17] | Foxtail, Giant plant response rating [9, 18] | Corn plant response rating [10, 20] | Crabgrass, Large plant response rating [13, 18]
10: Plant response rating, Barnyardgrass ([2]; 31 g ai/ha, scale 0 to 100 (0 no effect, 100 complete control)) | Plant response rating, Ragweed [4, 17] | Soybean plant response rating [5, 18] | Johnsongrass plant response rating [7, 20] | Plant response rating, Corn [10, 19] | Crabgrass, Large plant response rating [13, 20] | Plant response rating, Oat, Wild [15, 17]
